From PubChem BioAssay (NCI)
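Method: 48-hour compound exposure of cells in 96-well plates, five concentrations, linear interpolation of endpoints. GI50 marks 50% less growth. Definition used: TGI = concentration required for complete inhibition of growth.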

Experiments:
Test in all cases: inhibition of tumour cell growth, NCI panel, 48 h
SK-MEL-5 melanoma = test system: SK-MEL-5 melanoma
T-47D breast = test system: T-47D breast
SN12C renal = test system: SN12C renal
PC-3 prostate = test system: PC-3 prostate
SK-MEL-2 melanoma = test system: SK-MEL-2 melanoma
MDA-MB-435 = test system: MDA-MB-435
M14 melanoma = test system: M14 melanoma
SF-539 CNS = test system: SF-539 CNS
SF-295 CNS = test system: SF-295 CNS
HT29 colon = test system: HT29 colon
OVCAR-5 ovarian = test system: OVCAR-5 ovarian
A498 renal = test system: A498 renal
SNB-19 CNS = test system: SNB-19 CNS
MDA-MB-231 breast = test system: MDA-MB-231 breast
HCT-116 colon = test system: HCT-116 colon
TK-10 renal = test system: TK-10 renal
NCI/ADR-RES ovarian = test system: NCI/ADR-RES ovarian
OVCAR-8 ovarian = test system: OVCAR-8 ovarian
CAKI-1 renal = test system: CAKI-1 renal
NCI-H226 lung = test system: NCI-H226 lung
RXF 393 renal = test system: RXF 393 renal
NCI-H23 lung = test system: NCI-H23 lung
SF-268 CNS = test system: SF-268 CNS
OVCAR-3 ovarian = test system: OVCAR-3 ovarian
HL-60(TB) leukemia = test system: HL-60(TB) leukemia
U251 CNS = test system: U251 CNS
A549 NSCLC = test system: A549 NSCLC
SK-MEL-28 melanoma = test system: SK-MEL-28 melanoma
OVCAR-4 ovarian = test system: OVCAR-4 ovarian
HOP-92 NSCLC = test system: HOP-92 NSCLC
MALME-3M melanoma = test system: MALME-3M melanoma
ACHN renal = test system: ACHN renal
786-0 renal = test system: 786-0 renal
K-562 leukemia = test system: K-562 leukemia
NCI-H460 lung = test system: NCI-H460 lung
HCC-2998 colon = test system: HCC-2998 colon
SNB-75 CNS = test system: SNB-75 CNS
MOLT-4 leukemia = test system: MOLT-4 leukemia
DU-145 prostate = test system: DU-145 prostate
EKVX NSCLC = test system: EKVX NSCLC
BT-549 breast = test system: BT-549 breast
IGROV1 ovarian = test system: IGROV1 ovarian
KM12 colon = test system: KM12 colon
NCI-H522 lung = test system: NCI-H522 lung
LOX IMVI melanoma = test system: LOX IMVI melanoma
UO-31 renal = test system: UO-31 renal
HS 578T breast = test system: HS 578T breast
HOP-62 NSCLC = test system: HOP-62 NSCLC
SK-OV-3 ovarian = test system: SK-OV-3 ovarian
COLO 205 colon = test system: COLO 205 colon
CCRF-CEM leukemia = test system: CCRF-CEM leukemia
HCT-15 colon = test system: HCT-15 colon
RPMI-8226 leukemia = test system: RPMI-8226 leukemia
SW-620 colon = test system: SW-620 colon

Q: For C=C1C(=O)O[C@H]2[C@H]1CC/C(Cn1cc(-c3ccccc3C(F)(F)F)nn1)=C\CC[C@@]1(C)O[C@@H]21, which GI50 (SK-MEL-5 melanoma) is on record?
A: 1.72 µM

Q: And the TGI (SK-MEL-5 melanoma)?
A: 3.44 µM

Q: What about the GI50 (T-47D breast) of the same compound?
A: 1.7 µM

Q: What about the TGI (T-47D breast) of the same compound?
A: 4.71 µM

Q: What about the GI50 (SN12C renal) of the same compound?
A: 2.48 µM

Q: What about the TGI (SN12C renal) of the same compound?
A: 7.46 µM

Q: And the GI50 (PC-3 prostate)?
A: 4.32 µM

Q: And the TGI (PC-3 prostate)?
A: 15.3 µM

Q: And the GI50 (SK-MEL-2 melanoma)?
A: 2.45 µM

Q: What about the TGI (SK-MEL-2 melanoma) of the same compound?
A: 5.78 µM

Q: And the GI50 (MDA-MB-435)?
A: 2.18 µM

Q: And the TGI (MDA-MB-435)?
A: 7.11 µM

Q: What about the GI50 (M14 melanoma) of the same compound?
A: 2.15 µM

Q: And the TGI (M14 melanoma)?
A: 5.13 µM

Q: And the GI50 (SF-539 CNS)?
A: 1.76 µM

Q: And the TGI (SF-539 CNS)?
A: 3.56 µM

Q: What about the GI50 (SF-295 CNS) of the same compound?
A: 10.3 µM

Q: What about the TGI (SF-295 CNS) of the same compound?
A: 22.6 µM

Q: And the GI50 (HT29 colon)?
A: 1.79 µM

Q: And the TGI (HT29 colon)?
A: 3.75 µM

Q: What about the GI50 (OVCAR-5 ovarian) of the same compound?
A: 2.46 µM

Q: And the TGI (OVCAR-5 ovarian)?
A: 8.95 µM

Q: What about the GI50 (A498 renal) of the same compound?
A: 3.86 µM

Q: What about the TGI (A498 renal) of the same compound?
A: 15.9 µM

Q: And the GI50 (SNB-19 CNS)?
A: 10.8 µM

Q: And the TGI (SNB-19 CNS)?
A: 25.8 µM

Q: And the GI50 (MDA-MB-231 breast)?
A: 1.64 µM

Q: And the TGI (MDA-MB-231 breast)?
A: 3.75 µM

Q: And the GI50 (HCT-116 colon)?
A: 1.26 µM

Q: And the TGI (HCT-116 colon)?
A: 2.74 µM

Q: And the GI50 (TK-10 renal)?
A: 1.71 µM

Q: And the TGI (TK-10 renal)?
A: 3.2 µM

Q: And the GI50 (NCI/ADR-RES ovarian)?
A: 2.99 µM

Q: What about the TGI (NCI/ADR-RES ovarian) of the same compound?
A: 15.1 µM

Q: And the GI50 (OVCAR-8 ovarian)?
A: 2.23 µM

Q: What about the TGI (OVCAR-8 ovarian) of the same compound?
A: 6.97 µM

Q: What about the GI50 (CAKI-1 renal) of the same compound?
A: 1.31 µM

Q: And the TGI (CAKI-1 renal)?
A: 2.63 µM

Q: And the GI50 (NCI-H226 lung)?
A: 1.73 µM

Q: And the TGI (NCI-H226 lung)?
A: 4.69 µM

Q: And the GI50 (RXF 393 renal)?
A: 1.07 µM

Q: What about the TGI (RXF 393 renal) of the same compound?
A: 2.32 µM

Q: What about the GI50 (NCI-H23 lung) of the same compound?
A: 1.75 µM

Q: What about the TGI (NCI-H23 lung) of the same compound?
A: 3.57 µM

Q: What about the GI50 (SF-268 CNS) of the same compound?
A: 2.09 µM

Q: What about the TGI (SF-268 CNS) of the same compound?
A: 5.25 µM

Q: What about the GI50 (OVCAR-3 ovarian) of the same compound?
A: 1.04 µM

Q: What about the TGI (OVCAR-3 ovarian) of the same compound?
A: 2.33 µM

Q: What about the GI50 (HL-60(TB) leukemia) of the same compound?
A: 2.58 µM

Q: And the TGI (HL-60(TB) leukemia)?
A: 10.1 µM

Q: What about the GI50 (U251 CNS) of the same compound?
A: 1.83 µM

Q: What about the TGI (U251 CNS) of the same compound?
A: 3.83 µM

Q: And the GI50 (A549 NSCLC)?
A: 7.23 µM

Q: And the TGI (A549 NSCLC)?
A: 21.8 µM

Q: And the GI50 (SK-MEL-28 melanoma)?
A: 1.75 µM

Q: What about the TGI (SK-MEL-28 melanoma) of the same compound?
A: 3.47 µM

Q: And the GI50 (OVCAR-4 ovarian)?
A: 2.77 µM

Q: What about the TGI (OVCAR-4 ovarian) of the same compound?
A: 9.4 µM

Q: What about the GI50 (HOP-92 NSCLC) of the same compound?
A: 1.48 µM

Q: What about the TGI (HOP-92 NSCLC) of the same compound?
A: 3.47 µM

Q: What about the GI50 (MALME-3M melanoma) of the same compound?
A: 1.7 µM

Q: What about the TGI (MALME-3M melanoma) of the same compound?
A: 3.56 µM

Q: And the GI50 (ACHN renal)?
A: 1.45 µM

Q: What about the TGI (ACHN renal) of the same compound?
A: 2.93 µM

Q: What about the GI50 (786-0 renal) of the same compound?
A: 1.84 µM

Q: What about the TGI (786-0 renal) of the same compound?
A: 3.92 µM

Q: What about the GI50 (K-562 leukemia) of the same compound?
A: 2.4 µM

Q: And the TGI (K-562 leukemia)?
A: 13.1 µM

Q: And the GI50 (NCI-H460 lung)?
A: 3.97 µM

Q: And the TGI (NCI-H460 lung)?
A: 17.7 µM

Q: And the GI50 (HCC-2998 colon)?
A: 1.85 µM

Q: What about the TGI (HCC-2998 colon) of the same compound?
A: 3.47 µM

Q: And the GI50 (SNB-75 CNS)?
A: 2.97 µM

Q: What about the TGI (SNB-75 CNS) of the same compound?
A: 17.5 µM

Q: What about the GI50 (MOLT-4 leukemia) of the same compound?
A: 3.03 µM

Q: And the TGI (MOLT-4 leukemia)?
A: 10.9 µM

Q: What about the GI50 (DU-145 prostate) of the same compound?
A: 1.42 µM

Q: And the TGI (DU-145 prostate)?
A: 2.78 µM

Q: And the GI50 (EKVX NSCLC)?
A: 2.32 µM

Q: What about the TGI (EKVX NSCLC) of the same compound?
A: 7.12 µM

Q: What about the GI50 (BT-549 breast) of the same compound?
A: 2.4 µM

Q: And the TGI (BT-549 breast)?
A: 8.28 µM

Q: What about the GI50 (IGROV1 ovarian) of the same compound?
A: 1.81 µM

Q: What about the TGI (IGROV1 ovarian) of the same compound?
A: 3.86 µM

Q: And the GI50 (KM12 colon)?
A: 5.88 µM

Q: And the TGI (KM12 colon)?
A: 19.2 µM

Q: What about the GI50 (NCI-H522 lung) of the same compound?
A: 1.38 µM

Q: And the TGI (NCI-H522 lung)?
A: 3.13 µM

Q: And the GI50 (LOX IMVI melanoma)?
A: 1.11 µM

Q: What about the TGI (LOX IMVI melanoma) of the same compound?
A: 2.35 µM

Q: And the GI50 (UO-31 renal)?
A: 1.23 µM

Q: And the TGI (UO-31 renal)?
A: 2.61 µM

Q: And the GI50 (HS 578T breast)?
A: 3.57 µM

Q: What about the TGI (HS 578T breast) of the same compound?
A: 26.7 µM

Q: What about the GI50 (HOP-62 NSCLC) of the same compound?
A: 4.72 µM

Q: And the TGI (HOP-62 NSCLC)?
A: 18.7 µM

Q: And the GI50 (SK-OV-3 ovarian)?
A: 17.3 µM

Q: What about the TGI (SK-OV-3 ovarian) of the same compound?
A: 31.2 µM

Q: What about the GI50 (COLO 205 colon) of the same compound?
A: 1.98 µM

Q: And the TGI (COLO 205 colon)?
A: 3.81 µM

Q: And the GI50 (CCRF-CEM leukemia)?
A: 0.767 µM

Q: And the TGI (CCRF-CEM leukemia)?
A: 10.1 µM

Q: What about the GI50 (HCT-15 colon) of the same compound?
A: 1.05 µM

Q: What about the TGI (HCT-15 colon) of the same compound?
A: 2.43 µM

Q: And the GI50 (RPMI-8226 leukemia)?
A: 1.87 µM

Q: And the TGI (RPMI-8226 leukemia)?
A: 8.49 µM

Q: And the GI50 (SW-620 colon)?
A: 1.24 µM

Q: And the TGI (SW-620 colon)?
A: 3.33 µM
